Results published in patent US9162979B2, “1,5-Diary1-2-alkylpyrrole-3-substituted nitro esters, selective COX-2 inhibitors and nitric oxide donors” (ROTTAPHARM BIOTECH S.R.L., priority 2010, dated 2015).

What was measured:
[1] = tested on: carrageenan-induced inflammatory state in the rat; test: Carrageenan test: nociceptive threshold (weight supported); type: in vivo; settings: for Weight supported (g) Before treatment: baseline before treatment
Method: (§1) Male Swiss albino mice (23-25 g) and Wistar rats (150-200 g) were used.
The nociceptive threshold in the rat was determined with an analgesiometer, as described by Leighton et al. (Br. J. Pharmacol., 1988, 93, 553-560), the pressure was measured before the treatment and after 30 and 60 min. To reproduce the inflammatory state in the rat, carrageenan was administered i.p. (0.1 ml, 1%) 4 h before the test.
(§2) The test was performed using 6 animals per group, all the compounds were administered per os, 30 min before the test. The carrageenan is administered 2 h before the test.

[2] = tested on: rat paw oedema induced by carrageenan; test: Volume of oedema test (carrageenan); type: in vivo
Method: The rat paw volumes were measured using a pletismometer. Four hours after injecting carrageenan 1.0% (0.1 ml injection), the volume of the right hind-paw was measured and compared with that of controls treated with a saline/carrageenan solution. The rats were administered the test compounds 3.5 hours after the carrageenan. The results are given as paw volume expressed in ml. The results relating to the analgesic and anti-oedemic activity in the carrageenan test for some representative compounds of the invention are shown in Table 11.
as §2

rat liver homogenate [3] = test: Evaluation of release of nitrites in hepatic homogenate; settings: for Maximum release (%): nitrite after 4 hours, 1 mM, 37° C., as percentage of SNP
Source text: (§3) By evaluating the time-dependent increase in nitrite concentrations in the liver homogenate, it was possible to extrapolate two descriptive parameters:
(§4) Time (in minutes) required for an amount of nitrite to be released by the test compound equal to half its maximum release.

[4] = tested on: isolated rings of thoracic aorta; test: Evaluation of release of NO: vasorelaxing activity on endothelium-denuded aortic rings contracted with KCl; set-up: species or system rat; key to NO release properties Emax (maximum vasorelaxing effect) / NO release properties pIC50 (vasorelaxing potency): S.E: Scarcely Effective: it is not possible to detect NO release comparable to the other compounds mentioned here; settings: for IC50 / Emax: Rattus norvegicus; for IC50: concentration reducing contractile tone induced by 20 mM KCl by half, read-out: NO release properties pIC50 (vasorelaxing potency) (converted); for Emax / NO release properties Emax (maximum vasorelaxing effect): relative to contractile tone induced by 20 mM KCl, 1 nM-10 μM; for Emax: read-out: NO release properties Emax (maximum vasorelaxing effect)
Procedure, shortened: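 Endothelium-denuded male Wistar rat thoracic aorta rings (2 g preload, Tyrode, 37 °C, 95% O2/5% CO2) precontracted with 20 mM KCl, then given cumulative test compound (1 nM–10 μM). Relaxation as % of KCl tone; Emax and pIC50 reported as mean±SE of 5–10 experiments. Also repeated with 1 μM ODQ.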

rat liver homogenate [5] = settings: 1 mM
Source text: as §3, §4

[6] = tested on: mouse abdominal contraction (writhing) induced by acetic acid; test: Abdominal constriction test induced by acetic acid; type: in vivo
Method: as §1
The antinociceptive activity was determined by the mouse abdominal contraction test using acetic acid (0.6%), which induces writhing, according to Koster's method (Fed. Proc., 1959, 18, 412-418). The number of stretching movements was counted for 10 minutes, starting 5 minutes after injection of acetic acid. The results relating to analgesic activity in the abdominal constriction test with representative compounds of the invention are shown in Table 10.
The test was carried out using 10 animals in the treated group and 20 in the control group (CMC); all the compounds were administered per os with the exception of the compound of Example 8, which was administered i.p.

COX-2 = COX-2 (Mus musculus (Mouse), UniProt Q05769); test: Evaluation of COX-2 activity: PGE2 production in LPS-stimulated J774 cells; type: cell-based, murine; settings: J774 cells stimulated 24 hours with LPS 10 μg/mL; PGE2 by radio-immunological assay; read-out: Cyclooxygenase inhibition COX-2 IC50
COX-2, sequence (Q05769 18-604): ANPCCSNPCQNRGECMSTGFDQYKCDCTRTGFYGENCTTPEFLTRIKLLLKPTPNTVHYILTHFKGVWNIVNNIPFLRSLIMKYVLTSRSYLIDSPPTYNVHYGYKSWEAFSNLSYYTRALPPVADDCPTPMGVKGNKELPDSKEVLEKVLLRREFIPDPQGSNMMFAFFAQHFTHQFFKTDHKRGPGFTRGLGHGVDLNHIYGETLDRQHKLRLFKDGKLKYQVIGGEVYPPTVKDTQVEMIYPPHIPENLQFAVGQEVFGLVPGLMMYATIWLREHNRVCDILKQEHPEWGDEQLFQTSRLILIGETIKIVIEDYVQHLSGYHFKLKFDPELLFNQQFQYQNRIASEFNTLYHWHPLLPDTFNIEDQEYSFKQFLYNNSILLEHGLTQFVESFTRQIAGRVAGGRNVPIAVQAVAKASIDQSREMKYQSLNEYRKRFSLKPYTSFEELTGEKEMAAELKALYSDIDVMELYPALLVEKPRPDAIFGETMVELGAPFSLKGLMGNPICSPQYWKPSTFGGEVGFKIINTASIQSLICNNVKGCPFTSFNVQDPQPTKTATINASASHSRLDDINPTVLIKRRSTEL
Procedure, shortened: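 Murine J774 macrophages switched to serum-free medium before stimulation; PGE2 in supernatants measured by radioimmunoassay, triplicate wells per condition. IC50 with 95% intervals from sigmoidal variable-slope dose-response fit.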

[7] = tested on: MIA-induced osteoarthritis; test: Chronic pain from MIA-induced osteoarthritis; type: in vivo, rat; settings: 20 mg/kg per os twice daily for 14 days; for Weight supported (g) Before treatment: baseline before treatment
Method: The compounds are administered per os at a dose of 20 mg/kg twice daily for 14 days. Monosodium iodoacetate (MIA), 2 mg in 25 μL is injected in the left knee of anaesthetized rats, the test is carried out according to the literature. Each experiment represents the mean value for 5 animals.

[8] = tested on: carrageenan-induced inflammatory state in the rat; test: Carrageenan test: nociceptive threshold (weight supported); type: in vivo; settings: 20 mg/kg per os

SMILES | Weight supported (g) After treatment 30 min ([1]; 10 mg/kg per os) [g] | Weight supported (g) After treatment 60 min ([1]; 10 mg/kg per os) [g] | Weight supported (g) Before treatment ([1]; 10 mg/kg per os) [g] | Oedema Volume ([2]; 10 mg/kg per os) [mL] | Maximum release (%) (rat liver homogenate [3]) | IC50 [4] [nM] | Emax [4] [%] | T ½ (rat liver homogenate [5]) [h] | N writhes ([6]; 20 mg/kg per os) | N writhes ([6]; 40 mg/kg per os) | IC50 (COX-2) [nM] | other results
Cc1ccc(-c2cc(C(F)(F)F)nn2-c2ccc(S(N)(=O)=O)cc2)cc1 [Celecoxib, reference compound] | 52.9 ± 3.1 | 48.3 ± 3.4 | 30.9 ± 2.6 | 1.91 ± 0.04 |  |  |  |  |  |  |  | 
Cc1c(CC(=O)OCCO[N+](=O)[O-])cc(-c2ccc(S(C)(=O)=O)cc2)n1-c1ccc(F)cc1 [Example 2, 2-(Nitrooxy)ethyl-2-[(1-(4-fluorophenyl)-2-methyl-5-(4-(methylsulphonyl)phenyl)-1H-pyrrol-3-yl)]acetate] |  |  |  |  | 26 ± 7 | 3470 | 58 ± 5 | 1.14 ± 0.208 |  |  |  | 
Cc1c(CC(=O)OCCO[N+](=O)[O-])cc(-c2ccc(S(C)(=O)=O)cc2)n1-c1cccc(F)c1 [Example 3, 2-(Nitrooxy)ethyl-2-[(1-(3-fluorophenyl)-2-methyl-5-(4-methylsulphonylphenyl)-1H-pyrrol-3-yl)]acetate] |  |  |  |  |  | 331 | 69 ± 4 |  | 17.1 ± 2.3 | 9.4 ± 2.5 | 19 | Weight supported (g) After treatment 30 min ([1]; 40 mg/kg per os): 54.1 ± 3.7 g; Weight supported (g) After treatment 60 min ([1]; 40 mg/kg per os): 38.7 ± 3.1 g; Weight supported (g) Before treatment ([1]; 40 mg/kg per os): 32.6 ± 2.7 g; Oedema Volume ([2]; 40 mg/kg per os): 2.17 ± 0.08 mL
Cc1c(CCOCCO[N+](=O)[O-])cc(-c2ccc(S(C)(=O)=O)cc2)n1-c1ccc(F)cc1 [Example 37, 2-[2-[2-(1-(4-Fluorophenyl)-2-methyl-5-(4-methylsulphonylphenyl)-1H-pyrrol-3-yl]ethoxy]ethyl Nitrate] | 55.1 ± 4.7 | 52.6 ± 4.0 | 34.7 ± 2.7 | 1.87 ± 0.07 | 25 ± 3 |  | 49 ± 3 | 0.713 ± 0.115 | 15.2 ± 3.3 |  | 14 | N writhes ([6]; 10 mg/kg per os): 19.1 ± 2.7; Weight supported (g) After treatment 30 min [7]: 45.1 ± 3.7 g; Weight supported (g) After treatment 4 h [7]: 39.1 ± 3.5 g; Weight supported (g) After treatment 24 h [7]: 33.8 ± 3.7 g; Weight supported (g) Before treatment [7]: 34.6 ± 3.1 g
Cc1c(CCOCCO)cc(-c2ccc(S(C)(=O)=O)cc2)n1-c1ccc(F)cc1 [Example 37-II] |  |  |  |  |  |  |  |  |  | 18.2 ± 3.1 |  | Weight supported (g) After treatment 30 min [7]: 51.2 ± 3.9 g; Weight supported (g) After treatment 4 h [7]: 50.3 ± 3.8 g; Weight supported (g) After treatment 24 h [7]: 48.1 ± 3.3 g; Weight supported (g) After treatment 36 h [7]: 47.4 ± 3.3 g; Weight supported (g) Before treatment [7]: 33.5 ± 2.6 g; Weight supported (g) After treatment 30 min ([1]; 20 mg/kg per os): 46.8 ± 3.7 g; Weight supported (g) After treatment 60 min ([1]; 20 mg/kg per os): 38.7 ± 3.3 g; Weight supported (g) Before treatment ([1]; 20 mg/kg per os): 32.5 ± 3.4 g; Oedema Volume ([2]; 20 mg/kg per os): 2.08 ± 0.07 mL
Cc1c(CCOCCO[N+](=O)[O-])cc(-c2ccc(S(C)(=O)=O)cc2)n1-c1cccc(F)c1 [Example 38, 2-[2-[2-(1-(3-Fluorophenyl)-2-methyl-5-(4-methylsulphonylphenyl)-1H-pyrrol-3-yl]ethoxy]ethyl Nitrate] |  |  |  |  | 28 ± 3 | 4790 | 60 ± 4 | 1.01 ± 0.145 |  | 25.3 ± 3.6 | 28 | 
Cc1c(CCOCCO[N+](=O)[O-])cc(-c2ccc(S(C)(=O)=O)cc2)n1-c1ccc(F)c(F)c1 [Example 39, 2-[2-[2-(1-(3,4-Difluorophenyl)-2-methyl-5-(4-methylsulphonylphenyl)-1H-pyrrol-3-yl]ethoxy]ethyl Nitrate] |  |  |  |  | 30 ± 1 |  | 43 ± 6 | 1.14 ± 0.142 | 26.3 ± 3.4 |  | 920 | 
Cc1c(CCOCCCO[N+](=O)[O-])cc(-c2ccc(S(C)(=O)=O)cc2)n1-c1ccc(F)cc1 [Example 41, 3-[2-[2-(1-(4-Fluorophenyl)-2-methyl-5-(4-methylsulphonylphenyl)-1H-pyrrol-3-yl)]ethoxy]propyl Nitrate] |  |  |  |  |  |  |  |  |  |  | 190 | Weight supported after 120 min [8]: 45.2±4.1; NO release properties Emax (maximum vasorelaxing effect) [4]: S.E.; Weight supported (g) After treatment 30 min ([1]; 20 mg/kg per os): 49.2 ± 3.7 g; Weight supported (g) After treatment 60 min ([1]; 20 mg/kg per os): 50.7 ± 3.8 g; Weight supported (g) Before treatment ([1]; 20 mg/kg per os): 30.9 ± 2.8 g; Oedema Volume ([2]; 20 mg/kg per os): 1.85 ± 0.08 mL
Cc1c(CCOCCCO[N+](=O)[O-])cc(-c2ccc(S(C)(=O)=O)cc2)n1-c1cccc(F)c1 [Example 42, 3-[2-(1-(3-Fluorophenyl)-2-methyl-5-(4-methylsulphonylphenyl)-1H-pyrrol-3-yl)ethoxy]propyl Nitrate] |  |  |  |  | 52 ± 8 |  |  | 1.41 ± 0.198 |  |  | 430 | NO release properties Emax (maximum vasorelaxing effect) [4]: S.E.
COc1ccc2cc([C@H](C)C(=O)OCCCCO[N+](=O)[O-])ccc2c1 [Naproxcinod, naproxcinod, reference compound] | 47.9 ± 3.5 | 46.2 ± 3.8 | 33.5 ± 3.7 | 1.95 ± 0.07 | 20 ± 1 | 5250 | 62 ± 4 | 0.143 ± 0.0483 |  |  |  | course of nitrite release (rat liver homogenate [3]; incubation in rat liver homogenate): very rapid, slight release of nitrites; Weight supported (g) After treatment 30 min ([1]; 30 mg/kg per os): 48.2 ± 2.8 g; Weight supported (g) After treatment 60 min ([1]; 30 mg/kg per os): 43.9 ± 3.7 g; Weight supported (g) Before treatment ([1]; 30 mg/kg per os): 32.7 ± 3.8 g; Oedema Volume ([2]; 30 mg/kg per os): 1.88 ± 0.07 mL
